One assay has as its target hNaV1.1 (SCN1A) (Homo sapiens, UniProt P35498). Description: Use-dependent inhibition of the CNS NaV1.1 sodium channel. It counts as cell-based. To be noted: % inhibition, 25 Hz; for inhibition at 1 µM: use-dependent block at 1 uM, read-out: Nav1.1 UDB 25 Hz 1 uM; for inhibition at 10 µM: use-dependent block at 10 uM, read-out: Nav1.1 UDB 25 Hz 10 uM. Summed up: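 Whole-cell automated patch clamp on HEK-293 cells stably expressing hNaV1.1, 23-25° C., CsF internal solution. Peak current at pulse 20 of a 25 Hz train (0 mV, 20 ms) from −120 mV, normalized to pulse 1; percentage inhibition versus compound-free condition.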

The next assay concerns the target T1, hNaV1.2 (SCN2A) (Homo sapiens, UniProt Q99250).
T1 construct: expressed in transfected cells
As to the kind of experiment: Use-dependent inhibition of the CNS NaV1.2 sodium channel. To be noted: HEK-293, % inhibition, 25 Hz; for inhibition at 1 µM: use-dependent block at 1 uM, read-out: Nav1.2 UDB 25 Hz 1 uM; for inhibition at 10 µM: use-dependent block at 10 uM, read-out: Nav1.2 UDB 25 Hz 10 uM. It counts as cell-based. In a few lines:
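Use-dependent block of human NaV1.2 was recorded by automated whole-cell patch clamp (QPatch) in HEK-293 cells stably expressing hNaV1.2 with beta1 and beta2 subunits. From a −120 mV holding potential, a 25 Hz train of twenty 20 ms pulses to 0 mV was applied. Peak current at pulse 20, normalized to pulse 1, gave percent inhibition versus compound-free conditions at 23-25° C.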

Molecules are shown by their SMILES.

T1 sequence (Q99250 whole entry): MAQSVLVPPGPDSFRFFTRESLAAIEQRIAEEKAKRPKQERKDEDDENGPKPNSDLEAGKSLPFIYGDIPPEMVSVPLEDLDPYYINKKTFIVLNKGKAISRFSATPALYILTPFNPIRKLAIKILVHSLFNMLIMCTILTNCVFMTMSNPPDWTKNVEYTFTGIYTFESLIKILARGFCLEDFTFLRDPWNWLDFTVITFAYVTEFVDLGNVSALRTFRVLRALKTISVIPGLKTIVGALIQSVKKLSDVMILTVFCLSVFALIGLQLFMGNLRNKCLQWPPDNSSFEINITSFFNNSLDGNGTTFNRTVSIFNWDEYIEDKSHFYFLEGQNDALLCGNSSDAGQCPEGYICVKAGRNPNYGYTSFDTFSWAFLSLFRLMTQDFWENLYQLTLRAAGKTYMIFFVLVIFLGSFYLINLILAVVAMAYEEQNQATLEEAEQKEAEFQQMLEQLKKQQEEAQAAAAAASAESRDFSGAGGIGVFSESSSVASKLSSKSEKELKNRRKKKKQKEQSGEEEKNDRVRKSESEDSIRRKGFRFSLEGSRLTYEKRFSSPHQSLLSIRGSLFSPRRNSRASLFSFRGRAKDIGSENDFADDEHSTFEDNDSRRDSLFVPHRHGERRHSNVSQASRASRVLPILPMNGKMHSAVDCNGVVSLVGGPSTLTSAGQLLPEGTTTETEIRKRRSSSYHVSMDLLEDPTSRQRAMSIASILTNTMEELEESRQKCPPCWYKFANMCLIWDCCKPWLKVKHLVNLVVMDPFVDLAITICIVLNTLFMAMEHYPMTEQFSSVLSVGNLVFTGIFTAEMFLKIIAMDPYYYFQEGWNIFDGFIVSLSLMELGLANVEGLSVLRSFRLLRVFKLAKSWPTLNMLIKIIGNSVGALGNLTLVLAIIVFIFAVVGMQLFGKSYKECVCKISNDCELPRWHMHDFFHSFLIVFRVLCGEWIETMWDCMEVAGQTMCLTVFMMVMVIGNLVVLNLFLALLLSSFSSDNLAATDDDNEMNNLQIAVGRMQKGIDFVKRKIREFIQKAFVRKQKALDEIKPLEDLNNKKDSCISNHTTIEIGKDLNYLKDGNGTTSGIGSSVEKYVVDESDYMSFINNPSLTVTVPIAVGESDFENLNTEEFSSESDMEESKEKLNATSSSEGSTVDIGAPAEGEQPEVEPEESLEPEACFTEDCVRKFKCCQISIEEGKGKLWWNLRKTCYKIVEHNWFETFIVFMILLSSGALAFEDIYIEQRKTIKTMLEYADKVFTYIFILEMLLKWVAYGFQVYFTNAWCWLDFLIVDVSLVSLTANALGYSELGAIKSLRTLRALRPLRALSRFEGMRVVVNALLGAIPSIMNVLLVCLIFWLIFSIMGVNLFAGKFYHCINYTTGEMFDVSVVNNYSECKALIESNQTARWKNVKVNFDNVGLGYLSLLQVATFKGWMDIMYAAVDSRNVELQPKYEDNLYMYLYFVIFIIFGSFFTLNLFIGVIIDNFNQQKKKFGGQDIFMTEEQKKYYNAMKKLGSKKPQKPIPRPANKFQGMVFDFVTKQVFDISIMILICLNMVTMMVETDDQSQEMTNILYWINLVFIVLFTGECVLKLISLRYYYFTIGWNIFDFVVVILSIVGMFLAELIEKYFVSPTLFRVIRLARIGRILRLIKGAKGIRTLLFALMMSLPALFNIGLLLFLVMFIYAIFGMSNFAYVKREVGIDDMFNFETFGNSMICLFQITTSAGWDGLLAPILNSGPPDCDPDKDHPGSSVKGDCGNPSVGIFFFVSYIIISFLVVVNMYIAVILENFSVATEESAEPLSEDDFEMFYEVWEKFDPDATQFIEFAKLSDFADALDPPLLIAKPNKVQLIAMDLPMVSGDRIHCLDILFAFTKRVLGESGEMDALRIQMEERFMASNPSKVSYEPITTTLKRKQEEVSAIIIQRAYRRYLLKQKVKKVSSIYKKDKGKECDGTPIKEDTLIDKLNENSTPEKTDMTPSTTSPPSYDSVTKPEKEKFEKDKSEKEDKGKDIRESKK
T1 sequence (Q07699 19-218 partner): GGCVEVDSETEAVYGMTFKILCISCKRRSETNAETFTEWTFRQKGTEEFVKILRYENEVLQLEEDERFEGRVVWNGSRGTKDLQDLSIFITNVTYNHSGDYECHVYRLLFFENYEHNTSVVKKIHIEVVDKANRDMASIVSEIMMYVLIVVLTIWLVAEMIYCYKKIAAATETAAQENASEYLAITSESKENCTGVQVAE
T1 sequence (O60939 30-215 partner): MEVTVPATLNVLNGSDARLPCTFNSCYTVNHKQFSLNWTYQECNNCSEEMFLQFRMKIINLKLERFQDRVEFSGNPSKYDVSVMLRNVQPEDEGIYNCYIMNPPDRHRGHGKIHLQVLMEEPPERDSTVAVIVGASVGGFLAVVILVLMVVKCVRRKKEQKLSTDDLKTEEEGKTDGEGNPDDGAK

Take `Cc1cccc(CN2Cc3cc(-c4ccc(OC(F)(F)F)cc4F)ccc3OC2=O)n1` [Example 47, 6-(2-fluoro-4-(trifluoromethoxy)phenyl)-3-((6-methylpyridin-2-yl)methyl)-3,4-dihydro-2H-benzo[e][1,3]oxazin-2-one]: on hNaV1.1 (SCN1A), the inhibition at 1 µM is below 5% and the inhibition at 10 µM is 69.2%. On hNaV1.2 (SCN2A), the inhibition at 1 µM came to 14.1% and the inhibition at 10 µM was 55.6%.

Consider `Cc1csc(CN2Cc3cc(-c4ccc(OC(F)(F)F)cc4)ccc3OC2=O)n1` [Example 52, 3-((4-methylthiazol-2-yl)methyl)-6-(4-(trifluoromethoxy)phenyl)-3,4-dihydro-2H-benzo[e][1,3]oxazin-2-one], for which, on hNaV1.1 (SCN1A), the inhibition at 1 µM turned out to be 32.9% and the inhibition at 10 µM came to 57.6%. Besides, on hNaV1.2 (SCN2A), the inhibition at 1 µM was found to be 20.8% and the inhibition at 10 µM is 63.7%.

Turning to `Cc1csc(CN2Cc3cc(-c4ccc(OC(F)(F)F)c(F)c4)ccc3OC2=O)n1` [Example 53, 6-(3-fluoro-4-(trifluoromethoxy)phenyl)-3-((4-methylthiazol-2-yl)methyl)-3,4-dihydro-2H-benzo[e][1,3]oxazin-2-one], at hNaV1.1 (SCN1A), the inhibition at 1 µM came out at 52.7% and the inhibition at 10 µM was 87.6%. Also, on hNaV1.2 (SCN2A), the inhibition at 1 µM turned out to be 32.3% and the inhibition at 10 µM amounted to 73.6%.

Turning to `Cc1csc(CN2Cc3cc(-c4ccc(OC(F)(F)F)c(C)c4)ccc3OC2=O)n1` [Example 54, 6-(3-methyl-4-(trifluoromethoxy)phenyl)-3-((4-methylthiazol-2-yl)methyl)-3,4-dihydro-2H-benzo[e][1,3]oxazin-2-one], on hNaV1.1 (SCN1A), the inhibition at 1 µM was below 5% and the inhibition at 10 µM is 36.7%. Further, on hNaV1.2 (SCN2A), the inhibition at 1 µM was 6.1% and the inhibition at 10 µM worked out at 43.5%.

For the molecule `Cc1csc(CN2Cc3cc(-c4ccc(OC(F)(F)F)cc4F)ccc3OC2=O)n1` [Example 55, 6-(2-fluoro-4-(trifluoromethoxy)phenyl)-3-((4-methylthiazol-2-yl)methyl)-3,4-dihydro-2H-benzo[e][1,3]oxazin-2-one], at hNaV1.1 (SCN1A), the inhibition at 1 µM was below 5% and the inhibition at 10 µM worked out at 55%. Also, at hNaV1.2 (SCN2A), the inhibition at 1 µM worked out at 22.6% and the inhibition at 10 µM is 61.8%.

`Cc1csc(CN2Cc3cc(-c4ccc(Cl)c(Cl)c4)ccc3OC2=O)n1` [Example 56, 6-(3,4-dichlorophenyl)-3-((4-methylthiazol-2-yl)methyl)-3,4-dihydro-2H-benzo[e][1,3]oxazin-2-one]: the inhibition at 1 µM on hNaV1.1 (SCN1A) and at hNaV1.2 (SCN2A) was below 5% each time. Moreover, the inhibition at 10 µM at hNaV1.1 (SCN1A) was determined as 10.7%; on hNaV1.2 (SCN2A), 15.2%.

In the case of `Cc1csc(CN2Cc3cc(-c4ccc(OC(F)(F)F)cc4Cl)ccc3OC2=O)n1` [Example 57, 6-(2-chloro-4-(trifluoromethoxy)phenyl)-3-((4-methylthiazol-2-yl)methyl)-3,4-dihydro-2H-benzo[e][1,3]oxazin-2-one], on hNaV1.1 (SCN1A), the inhibition at 1 µM is below 5% and the inhibition at 10 µM turned out to be 48.8%. On hNaV1.2 (SCN2A), the inhibition at 1 µM worked out at 12.8% and the inhibition at 10 µM is 61.5%.

As for `COc1cc(OC(F)(F)F)ccc1-c1ccc2c(c1)CN(Cc1nc(C)cs1)C(=O)O2` [Example 58, 6-(2-methoxy-4-(trifluoromethoxy)phenyl)-3-((4-methylthiazol-2-yl)methyl)-3,4-dihydro-2H-benzo[e][1,3]oxazin-2-one], at hNaV1.1 (SCN1A), the inhibition at 1 µM is 7.8% and the inhibition at 10 µM came out at 68.7%. Also, on hNaV1.2 (SCN2A), the inhibition at 1 µM turned out to be 10.6% and the inhibition at 10 µM came to 58.7%.

Regarding `Cc1csc(CN2Cc3cc(-c4ccc(Cl)c(F)c4)ccc3OC2=O)n1` [Example 59, 6-(4-chloro-3-fluorophenyl)-3-((4-methylthiazol-2-yl)methyl)-3,4-dihydro-2H-benzo[e][1,3]oxazin-2-one], on hNaV1.1 (SCN1A), the inhibition at 1 µM amounted to 20.7% and the inhibition at 10 µM amounted to 39.9%. In addition, at hNaV1.2 (SCN2A), the inhibition at 1 µM is below 5% and the inhibition at 10 µM was found to be 41.2%.

Values taken from patent US9416128B2, “Fused heterocyclic compounds as ion channel modulators” (Gilead Sciences, Inc., priority 2013, dated 2016).
